{"source": "paper PMC6029275", "about": "“Cytotoxic properties of the anthraquinone derivatives isolated from the roots of Rubia philippinensis” (BMC Complementary and Alternative Medicine, 2018)", "assay_type_in_all_cases": "cell-based", "key": {"[1]": {"test_system": "SK-MEL-5 (human melanoma)", "experiment": "MTT cytotoxicity assay, SK-MEL-5", "conditions": "for IC50: MTT, 24 h treatment, mean ± SD; for Selectivity index SK-MEL-5 (column head IC50 (μM)): ratio of IC50 on MDCK cells to IC50 in SK-MEL-5", "method": "(§1) The potential cytotoxicity of the isolated anthraquinone derivatives was studied against various cancer cell lines, including SK-MEL-5 (human melanoma), B16F10 (murine melanoma) MCF7 (human breast adenocarcinoma), and MDA-MB-231 (human breast adenocarcinoma) and the normal cell line MDCK (normal kidney epithelial) using the MTT assay. All cell lines were cultured in DMEM medium supplemented with 10% foetal bovine serum (FBS) and streptomycin–penicillin (100 μg/ml each; Hyclone) in a 5% CO2 humidified incubator. An MTT assay was employed to determine the percentage of the viability of various cancer cells as well as MDCK cells. All cells were first cultured in 96-well plates (1 × 10^5 cells/mL for all cancerous cells and 5 × 10^5 cells/mL for MDCK cells) for 24 h, and treated with indicated concentration of isolated compounds (6.25–100 μM for cancerous cells and 6.25–400 μM for MDCK cells). Various dilutions of stock culture were made in the culture medium to get the final concentration of the sample with a 0.1% of DMSO concentration, including the control. After 24 h incubation, MTT reagent was added to each well and the plate was incubated at 37 °C for 1 h. After removing the medium, the plate was washed twice with PBS (pH 7.4). The intracellular insoluble formazan was dissolved in 100% DMSO. A microplate reader was used to measure the absorbance of each cell line at 570 nm, and the percentage of cell viability was calculated. The absorbance value for the average of wells of cells treated with each test sample concentration was expressed as a percentage of this control and the IC50 values for each sample on each cell line were calculated. The anti-cancer drug oxaloplatin was used as a positive control."}, "[2]": {"test_system": "B16F10 (murine melanoma)", "experiment": "MTT cytotoxicity assay, B16F10", "conditions": "for IC50: MTT, 24 h treatment, mean ± SD; for Selectivity index B16F10 (column head IC50 (μM)): ratio of IC50 on MDCK cells to IC50 in B16F10", "method": "as §1"}, "[3]": {"test_system": "MCF7 (human breast adenocarcinoma)", "experiment": "MTT cytotoxicity assay, MCF7", "conditions": "for IC50: MTT, 24 h treatment, mean ± SD; for Selectivity index MCF7 (column head IC50 (μM)): ratio of IC50 on MDCK cells to IC50 in MCF7", "method": "as §1"}, "[4]": {"test_system": "MDA-MB-231 (human breast adenocarcinoma)", "experiment": "MTT cytotoxicity assay, MDA-MB-231", "conditions": "for IC50: MTT, 24 h treatment, mean ± SD; for Selectivity index MDA-MB-231: ratio of IC50 on MDCK cells to IC50 in MDA-MB-231", "method": "as §1"}, "[5]": {"test_system": "MDCK (normal kidney epithelial cells)", "experiment": "MTT cytotoxicity assay, normal cell line MDCK", "conditions": "24 h treatment, mean ± SD", "method": "as §1"}}, "data": [{"molecule": "CC(=O)OC[C@H]1O[C@@H](Oc2cc3c(c(O)c2C)C(=O)c2ccc(O)cc2C3=O)[C@H](O[C@H]2O[C@@H](C)[C@H](O)[C@@H](O)[C@H]2O)[C@@H](O)[C@@H]1O", "note": "[Compound 1, 2-methyl-1,3,6-trihydroxy-9,10-anthraquinone-3-O-(6′-O-acetyl)-α-rhamnosyl(1 → 2)-β-glucoside]", "values": [{"measurement": "IC50", "setting": "[1]; Homo sapiens, SK-MEL-5", "result": "91 ± 1.88", "unit": "µM"}, {"measurement": "Selectivity index SK-MEL-5 (column head IC50 (μM))", "setting": "[1]", "result": 2.11}, {"measurement": "IC50", "setting": "[2]; Mus musculus, B16-F10", "result": "48.68 ± 0.1", "unit": "µM"}, {"measurement": "Selectivity index B16F10 (column head IC50 (μM))", "setting": "[2]", "result": 3.95}, {"measurement": "IC50", "setting": "[3]; Homo sapiens, MCF7", "result": "65.5 ± 1.1", "unit": "µM"}, {"measurement": "Selectivity index MCF7 (column head IC50 (μM))", "setting": "[3]", "result": 2.94}, {"measurement": "IC50", "setting": "[4]; Homo sapiens, MDA-MB-231", "result": "49.4 ± 0.78", "unit": "µM"}, {"measurement": "Selectivity index MDA-MB-231", "setting": "[4]", "result": 3.89}, {"measurement": "IC50", "setting": "[5]; Canis lupus familiaris, MDCK", "result": "192.3 ± 0.49", "unit": "µM"}]}, {"molecule": "O=C1c2ccccc2C(=O)c2c(O)cc(O)cc21", "note": "[Compound 4, xanthopurpurin]", "values": [{"measurement": "IC50", "setting": "[1]; Homo sapiens, SK-MEL-5", "result": "21.4 ± 0.99", "unit": "µM"}, {"measurement": "IC50", "setting": "[2]; Mus musculus, B16-F10", "result": "23.7 ± 1.71", "unit": "µM"}, {"measurement": "IC50", "setting": "[3]; Homo sapiens, MCF7", "result": "15.8 ± 1", "unit": "µM"}, {"measurement": "IC50", "setting": "[4]; Homo sapiens, MDA-MB-231", "result": "14.7 ± 1.45", "unit": "µM"}, {"measurement": "IC50", "setting": "[5]; Canis lupus familiaris, MDCK", "result": "67.9 ± 1.02", "unit": "µM"}]}, {"molecule": "O=C1[O][Pt]2([NH][C@@H]3CCCC[C@H]3[NH]2)[O]C1=O", "note": "[Oxaloplatin, oxaloplatin, reference compound]", "values": [{"measurement": "IC50", "setting": "[1]", "result": "14.2 ± 1.02", "unit": "µM"}, {"measurement": "IC50", "setting": "[2]", "result": "10.5 ± 0.92", "unit": "µM"}, {"measurement": "IC50", "setting": "[3]", "result": "8.59 ± 1.22", "unit": "µM"}, {"measurement": "IC50", "setting": "[4]", "result": "7.95 ± 1.92", "unit": "µM"}, {"measurement": "IC50", "setting": "[5]", "result": "24 ± 1.04", "unit": "µM"}]}, {"molecule": "O=C1c2ccccc2C(=O)c2c1ccc(O)c2O", "note": "[Compound 3, alizarin]", "values": [{"measurement": "IC50", "setting": "[1]; Homo sapiens, SK-MEL-5", "result": "53.08 ± 0.3", "unit": "µM"}, {"measurement": "IC50", "setting": "[2]; Mus musculus, B16-F10", "result": "98.8 ± 2.1", "unit": "µM"}, {"measurement": "IC50", "setting": "[3]; Homo sapiens, MCF7", "result": "49.2 ± 0.85", "unit": "µM"}, {"measurement": "IC50", "setting": "[4]; Homo sapiens, MDA-MB-231", "result": "48.64 ± 0.33", "unit": "µM"}, {"measurement": "IC50", "setting": "[5]; Canis lupus familiaris, MDCK", "result": "199.3 ± 1.88", "unit": "µM"}]}, {"molecule": "Cc1c(O)cc2c(c1O)C(=O)c1ccc(O)cc1C2=O", "note": "[Compound 2, 2-methyl-1,3,6-trihydroxy-9,10-anthraquinone]", "values": [{"measurement": "IC50", "setting": "[1]; Homo sapiens, SK-MEL-5", "result": "46.8 ± 1.39", "unit": "µM"}, {"measurement": "Selectivity index SK-MEL-5 (column head IC50 (μM))", "setting": "[1]", "result": 3.61}, {"measurement": "IC50", "setting": "[2]; Mus musculus, B16-F10", "result": "77.88 ± 0.34", "unit": "µM"}, {"measurement": "Selectivity index B16F10 (column head IC50 (μM))", "setting": "[2]", "result": 2.17}, {"measurement": "IC50", "setting": "[3]; Homo sapiens, MCF7", "result": "80 ± 1.14", "unit": "µM"}, {"measurement": "Selectivity index MCF7 (column head IC50 (μM))", "setting": "[3]", "result": 2.11}, {"measurement": "IC50", "setting": "[4]; Homo sapiens, MDA-MB-231", "result": "59.22 ± 0.4", "unit": "µM"}, {"measurement": "Selectivity index MDA-MB-231", "setting": "[4]", "result": 2.85}, {"measurement": "IC50", "setting": "[5]; Canis lupus familiaris, MDCK", "result": "168.8 ± 0.61", "unit": "µM"}]}, {"molecule": "COCc1c(O)cc2c(c1O)C(=O)c1ccccc1C2=O", "note": "[Compound 5, lucidin-ω-methyl ether]", "values": [{"measurement": "IC50", "setting": "[1]; Homo sapiens, SK-MEL-5", "result": "42.8 ± 1.32", "unit": "µM"}, {"measurement": "Selectivity index SK-MEL-5 (column head IC50 (μM))", "setting": "[1]", "result": 1.85}, {"measurement": "IC50", "setting": "[2]; Mus musculus, B16-F10", "result": "29.5 ± 2.61", "unit": "µM"}, {"measurement": "Selectivity index B16F10 (column head IC50 (μM))", "setting": "[2]", "result": 2.68}, {"measurement": "IC50", "setting": "[3]; Homo sapiens, MCF7", "result": "24.1 ± 1.06", "unit": "µM"}, {"measurement": "Selectivity index MCF7 (column head IC50 (μM))", "setting": "[3]", "result": 3.28}, {"measurement": "IC50", "setting": "[4]; Homo sapiens, MDA-MB-231", "result": "13 ± 0.33", "unit": "µM"}, {"measurement": "Selectivity index MDA-MB-231", "setting": "[4]", "result": 6.06}, {"measurement": "IC50", "setting": "[5]; Canis lupus familiaris, MDCK", "result": "79.01 ± 0.03", "unit": "µM"}]}]}
